This assay has as its system myocardium. How it is done:
Sixteen closed-chest studies were performed in 6 healthy, adult mongrel dogs of both sexes weighing 15 to 30 kg. The dogs were maintained on a standard laboratory diet which was discontinued 24 hours prior to study. The animals were anesthetized using a combination of xylazine and sodium pentobarbital. Transmission cross-sectional scans of the chest area were performed on each dog with an ECAT II scanner using a ^68 Ge ring source with medium resolution filters and standard shadow shields. Measured attenuation coefficients were used for reconstructing the emission tomographs. […] Serial scans of the heart from base to apex in 10-15 mm steps were made starting 3-5 minutes after injection. After each series was completed, the ECAT II bed was returned to the original position and the dogs were rescanned. This procedure was repeated over a 2 to 4 hour period. Each set of scans required approximately 1 hour for 6 slices, so that 2 to 4 sets of images were obtained in each study. Sequential images were also obtained through a 20-mm section of the heart over a 2-hour period. Additional images from 1 dog were obtained using the new high-resolution ECAT III scanner. […] The animals were injected through a cannula or catheter in the leg and heparanized venous blood samples were removed from the opposite side. Known aliquots of whole blood, plasma, and erythrocytes were assayed in a well-type scintillation counter to determine the ^64 Cu levels present in the different components.

Data on one substance can be found in patent US4756904A (Oak Ridge Associated Universities, Inc., priority 1986, dated 1988).

For copper-64 citrate [^64 Cu citrate], the “image quality with the PET” value (^64 Cu citrate, PET) is recorded as “unexpectedly distinct image”. For the same substance, the “useful images of the myocardium” value (dog) is on record as “yields useful images of the myocardium”. For the same substance, for the setting “dog, intravenous, tomographic images”, the “uptake by the myocardium” value was “rapid and uniform uptake of the compound throughout the myocardium”. Besides, the “uptake by myocardial tissue over time” value (dog, over the time periods studied) was “occurs quite rapidly and remains constant over the time periods studied”. Also, under “dog, transverse section”, the “visibility of the left ventricle in the emission scan” value is “very distinctly” and the “visibility of the right ventricle in the emission scan” value is “less clearly seen”.
